Results as given in publication PMC8157871, “Synthesis, Anticancer Screening of Some Novel Trimethoxy Quinazolines and VEGFR2, EGFR Tyrosine Kinase Inhibitors Assay; Molecular Docking Studies” (Molecules, 2021).

Experiments:
[1] = test system: MDA cells; assay: Cytotoxicity against MDA cell line; conditions: read-out: Cytotoxicity IC50 MDA
[2] = test system: Hela cells; assay: Cytotoxicity against Hela cell line; conditions: read-out: Cytotoxicity IC50 Hela
[3] = test system: A549 cell line; assay: Cytotoxicity against A549 cell line; conditions: read-out: Cytotoxicity IC50 A549
[4] = target: EGFR (Homo sapiens, UniProt P00533); assay: EGFR enzyme inhibitory activity
Description: (§1) The synthesized compounds were evaluated for anticancer activity by adapting a reported procedure [29, 30, 31, 32, 33] using two enzymes, VEGFR2 and EGFR, as well as three cell lines.

[5] = target: VEGFR2 (Homo sapiens, UniProt P35968); assay: VEGFR2 enzyme inhibitory activity
Description: as §1

[6] = relative to docetaxel, from IC50 values

Sequence of VEGFR2 (P35968 20-1356): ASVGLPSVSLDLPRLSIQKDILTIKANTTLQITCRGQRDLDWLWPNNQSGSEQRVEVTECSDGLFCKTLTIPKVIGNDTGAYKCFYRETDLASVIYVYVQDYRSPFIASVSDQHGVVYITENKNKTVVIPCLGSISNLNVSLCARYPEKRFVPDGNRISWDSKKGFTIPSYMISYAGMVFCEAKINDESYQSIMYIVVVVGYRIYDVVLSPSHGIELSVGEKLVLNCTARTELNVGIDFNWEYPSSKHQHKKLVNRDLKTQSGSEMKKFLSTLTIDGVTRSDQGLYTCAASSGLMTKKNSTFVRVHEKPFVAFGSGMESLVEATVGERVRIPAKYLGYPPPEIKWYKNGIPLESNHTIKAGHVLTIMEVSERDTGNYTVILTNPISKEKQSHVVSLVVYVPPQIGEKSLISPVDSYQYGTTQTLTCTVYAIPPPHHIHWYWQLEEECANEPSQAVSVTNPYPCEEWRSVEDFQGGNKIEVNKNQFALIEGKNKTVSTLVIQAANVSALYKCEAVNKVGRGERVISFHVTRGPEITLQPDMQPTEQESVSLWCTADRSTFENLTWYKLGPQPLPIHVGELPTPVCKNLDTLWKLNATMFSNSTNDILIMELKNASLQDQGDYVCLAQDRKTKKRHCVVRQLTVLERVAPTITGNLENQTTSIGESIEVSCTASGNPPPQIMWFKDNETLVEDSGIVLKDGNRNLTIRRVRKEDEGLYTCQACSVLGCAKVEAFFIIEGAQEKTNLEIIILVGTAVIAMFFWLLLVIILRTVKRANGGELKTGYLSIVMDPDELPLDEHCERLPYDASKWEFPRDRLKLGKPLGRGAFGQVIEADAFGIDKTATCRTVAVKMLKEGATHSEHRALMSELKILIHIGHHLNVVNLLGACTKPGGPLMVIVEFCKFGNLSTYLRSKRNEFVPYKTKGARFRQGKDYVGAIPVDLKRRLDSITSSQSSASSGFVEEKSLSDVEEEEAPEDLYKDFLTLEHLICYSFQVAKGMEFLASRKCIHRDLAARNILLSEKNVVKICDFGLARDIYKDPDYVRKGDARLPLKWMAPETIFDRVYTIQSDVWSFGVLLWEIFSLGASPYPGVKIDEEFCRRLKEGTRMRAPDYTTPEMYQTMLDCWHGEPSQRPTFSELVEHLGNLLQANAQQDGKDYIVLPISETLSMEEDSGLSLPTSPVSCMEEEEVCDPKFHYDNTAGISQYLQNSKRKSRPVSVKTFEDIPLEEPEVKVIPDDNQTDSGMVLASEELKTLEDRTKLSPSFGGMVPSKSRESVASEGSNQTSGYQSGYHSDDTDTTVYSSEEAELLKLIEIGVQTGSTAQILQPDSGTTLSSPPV
Sequence of EGFR (P00533 25-1210): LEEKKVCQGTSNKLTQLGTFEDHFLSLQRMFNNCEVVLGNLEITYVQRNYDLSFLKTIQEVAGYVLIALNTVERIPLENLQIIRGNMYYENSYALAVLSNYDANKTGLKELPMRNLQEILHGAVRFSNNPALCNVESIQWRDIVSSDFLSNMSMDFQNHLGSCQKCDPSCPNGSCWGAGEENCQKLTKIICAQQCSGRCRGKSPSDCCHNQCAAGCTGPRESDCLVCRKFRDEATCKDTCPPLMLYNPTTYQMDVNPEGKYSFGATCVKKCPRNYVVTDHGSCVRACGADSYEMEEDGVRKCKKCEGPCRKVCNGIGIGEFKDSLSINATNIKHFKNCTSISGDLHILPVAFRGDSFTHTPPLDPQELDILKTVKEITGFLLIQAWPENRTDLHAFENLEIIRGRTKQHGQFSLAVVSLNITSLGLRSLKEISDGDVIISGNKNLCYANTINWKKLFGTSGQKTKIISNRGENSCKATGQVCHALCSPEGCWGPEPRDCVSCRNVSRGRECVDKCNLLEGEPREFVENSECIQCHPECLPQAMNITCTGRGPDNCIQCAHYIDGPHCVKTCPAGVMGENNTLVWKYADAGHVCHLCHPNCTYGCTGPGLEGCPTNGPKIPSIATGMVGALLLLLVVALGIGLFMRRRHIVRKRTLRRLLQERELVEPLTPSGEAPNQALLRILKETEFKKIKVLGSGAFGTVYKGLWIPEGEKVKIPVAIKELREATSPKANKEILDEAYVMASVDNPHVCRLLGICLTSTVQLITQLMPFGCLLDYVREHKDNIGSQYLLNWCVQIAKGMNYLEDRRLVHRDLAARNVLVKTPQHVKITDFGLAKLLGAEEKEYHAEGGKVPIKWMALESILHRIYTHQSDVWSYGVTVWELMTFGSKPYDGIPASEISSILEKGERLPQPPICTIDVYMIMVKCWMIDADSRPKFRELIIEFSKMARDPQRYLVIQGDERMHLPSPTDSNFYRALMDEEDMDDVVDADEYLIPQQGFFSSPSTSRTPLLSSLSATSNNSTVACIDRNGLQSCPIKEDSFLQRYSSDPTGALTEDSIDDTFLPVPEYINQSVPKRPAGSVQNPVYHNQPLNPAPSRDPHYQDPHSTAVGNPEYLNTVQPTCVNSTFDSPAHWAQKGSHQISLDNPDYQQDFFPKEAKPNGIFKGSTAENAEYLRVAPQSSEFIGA

| Compound | melting point [°C] | IC50 [4] [µM] | inhibitory activity for enzyme EGFR compared to the reference drug [4, 6] [%] | IC50 [5] [µM] | inhibitory activity for enzyme VEGFR2 compared to the reference drug [5, 6] [%] | IC50 [1] [µM] | IC50 [2] [µM] | IC50 [3] [µM] |
| --- | --- | --- | --- | --- | --- | --- | --- | --- |
| COc1cccc(C(N)=O)c1NC(=O)c1cc(OC)c(OC)c(OC)c1 [Compound 6] | 132 to 134 | 0.106 ± 0.00222 | ~53 | 0.0981 ± 0.00293 | ~91 | 0.79 ± 0.04 | 2.8 ± 0.07 | 81 ± 2.1 |
| COc1cc(-c2nc3c(OC)cccc3c(=O)n2N)cc(OC)c1OC [Compound 4, 3-amino-8-methoxy-2-trimethoxyphenylquanazoline-4(3H)-one] | 182 to 184 |  |  |  |  | 4.12 ± 0.1 | 29.8 ± 0.78 | 18 ± 0.5 |
| COc1cc(-c2nc3c(OC)cccc3c(=O)[nH]2)cc(OC)c1OC [Compound 5, 8-methoxy-2-trimethoxyphenylquanazoline-4(3H)-one] | 242 to 244 |  |  |  |  | 4.39 ± 0.1 | 12.9 ± 0.34 | 26.3 ± 0.7 |
| COc1cccc(C(=O)NN)c1NC(=O)c1cc(OC)c(OC)c(OC)c1 [Compound 7, 3-methoxy-2-(trimethoxybenzamido)-benzoylhydrazide] | 195 to 197 |  |  |  |  | 9 ± 0.2 | 18.7 ± 0.49 | 46.3 ± 1.2 |
| COc1cc(-c2nc3c(OC)cccc3c(=O)o2)cc(OC)c1OC [Compound 3, 8-methoxy-2-trimethoxyphenyl-4H-benzo[d](1,3)oxazin-4-one] | 182 to 184 |  |  |  |  | 17.4 ± 0.5 | 66.5 ± 1.74 | 43.6 ± 1.1 |

Further lines, with some results ahead:

| melting point [°C] | IC50 [4] [µM] | inhibitory activity for enzyme EGFR compared to the reference drug [4, 6] [%] | IC50 [5] [µM] | inhibitory activity for enzyme VEGFR2 compared to the reference drug [5, 6] [%] | Compound | IC50 [1] [µM] | IC50 [2] [µM] | IC50 [3] [µM] |
| --- | --- | --- | --- | --- | --- | --- | --- | --- |
| 263 to 265 |  |  |  |  | COc1cccc(C(=O)NNS(=O)(=O)c2ccccc2)c1NC(=O)c1cc(OC)c(OC)c(OC)c1 [Compound 8, 3-methoxy-2-(trimethoxybenzamido)-N-[benzenesulphonyl]benzoylhydrazide] | 11.7 ± 0.3 | 4.94 ± 0.13 | 13 ± 0.3 |
| 218 to 220 |  |  |  |  | COc1cc(-c2nc3c(OC)cccc3c(=O)n2C)cc(OC)c1OC [Compound 10, 3-methyl-8-methoxy-2-trimethoxyphenylquanazoline-4(3H)-one] | 7.77 ± 0.2 | 3.98 ± 0.1 | 12.3 ± 0.3 |
|  | 0.0561 ± 0.00117 |  | 0.0893 ± 0.00267 |  | CC(=O)O[C@@]12CO[C@@H]1C[C@H](O)[C@@]1(C)C(=O)[C@H](O)C3=C(C)[C@@H](OC(=O)[C@H](O)[C@@H](NC(=O)OC(C)(C)C)c4ccccc4)C[C@@](O)([C@@H](OC(=O)c4ccccc4)[C@H]21)C3(C)C [Docetaxel, docetaxel, reference compound] | 3.98 ± 0.08 | 9.65 ± 0.2 | 10.8 ± 0.23 |
| 237 to 239 |  |  |  |  | COc1cc(-c2nc3c(OC)cccc3c(=O)n2-c2cc(OC)c(OC)c(OC)c2)cc(OC)c1OC [Compound 11] | 7.06 ± 0.2 | 12 ± 0.31 | 4.03 ± 0.1 |
| 244 to 246 |  |  |  |  | COc1cc(-c2nc3c(OC)cccc3c(=O)n2NS(=O)(=O)c2ccccc2)cc(OC)c1OC [Compound 9, 3-benzenesulfamoyl-8-methoxy-2-trimethoxyphenylquanazoline-4(3H)-one] | 3.42 ± 0.1 | 11.7 ± 0.31 | 19.9 ± 0.5 |
